According to patent US20240217997A1 (priority 2021, published 2024):
Values after ≈ are worked out from the molar mass of the structure shown. Like-named read-outs stand apart in the source and are kept apart here.

Key:
P. falciparum DXR = P. falciparum DXR (Plasmodium falciparum, UniProt Q8IKG4); conditions: cited from earlier work
[1] = system: Mycobacterium tuberculosis; experiment: microbe, parasite or virus in culture
Plasmodium falciparum = Plasmodium falciparum minimum inhibitory concentration (MIC), Table 4; type: cell-based

Chain of P. falciparum DXR (Q8IKG4 73-488): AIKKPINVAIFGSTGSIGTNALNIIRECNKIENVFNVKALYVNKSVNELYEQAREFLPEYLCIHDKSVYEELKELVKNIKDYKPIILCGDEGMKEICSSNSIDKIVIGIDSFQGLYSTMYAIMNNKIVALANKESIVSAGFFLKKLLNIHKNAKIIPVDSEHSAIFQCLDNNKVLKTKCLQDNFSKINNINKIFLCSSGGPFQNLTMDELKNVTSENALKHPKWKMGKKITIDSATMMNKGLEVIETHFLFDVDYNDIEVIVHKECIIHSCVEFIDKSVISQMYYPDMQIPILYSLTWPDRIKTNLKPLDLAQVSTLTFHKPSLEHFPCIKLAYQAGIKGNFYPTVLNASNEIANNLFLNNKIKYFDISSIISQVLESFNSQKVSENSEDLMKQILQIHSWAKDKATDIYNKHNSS

CC(=O)N(O)CCCP(=O)(O)O [FR900098]
IC50 (P. falciparum DXR): 24 nM

NNC(=O)c1ccncc1 [Isoniazid]
MIC ([1]; 168 h, read-out: 1-week MIC 7H9/glucose/BSA/Tx): 0.02 µg/mL (≈ 0.146 µM)
MIC ([1]; 168 h, read-out: 1-week MIC 7H9/glucose/casitone/Tx): 0.02 µg/mL (≈ 0.146 µM)
MIC ([1]; 168 h, read-out: 1-week MIC 7H9/glycerol/glucose/BSA/Tween): 0.03 µg/mL (≈ 0.219 µM)
MIC ([1]; 336 h, read-out: 2-week MIC 7H9/glucose/BSA/Tx): 0.03 µg/mL (≈ 0.219 µM)
MIC ([1]; 336 h, read-out: 2-week MIC 7H9/glucose/casitone/Tx): 0.02 µg/mL (≈ 0.146 µM)
MIC ([1]; 336 h, read-out: 2-week MIC 7H9/glycerol/glucose/BSA/Tween): 0.039 µg/mL (≈ 0.284 µM)

O=CN(O)CCCP(=O)(O)O [Fosmidomycin]
MIC, Mean (Plasmodium falciparum; Mean of Runs 1-3): 0.9075 µg/mL (≈ 4.96 µM)
MIC, Run 1 (Plasmodium falciparum; Run 1): 1.391 µg/mL (≈ 7.6 µM)
MIC, Run 2 (Plasmodium falciparum; Run 2): 0.7607 µg/mL (≈ 4.15 µM)
MIC, Run 3 (Plasmodium falciparum; Run 3): 0.5708 µg/mL (≈ 3.12 µM)
